From KR20140065554A, “안토시아닌을 포함하는 항염용 조성물” (대한민국(농촌진흥청장), priority 2012, dated 2014) come the findings set out here.

Holding throughout (format): cell-based
Test [1] deals with LPS-induced NO production in RAW 264.7 (RAW 264.7에서 LPS로 유도된 NO 생성). In words: Inhibition of LPS-induced NO production in RAW 264.7. To be noted: p<0.05.
Test [2] has as its system LPS-induced NO production (LPS로 유도되는 NO의 생성). In words: Anti-inflammatory effect assay of peak 2 anthocyanin: inhibition of LPS-induced NO production. To be noted: p<0.05.
The next test relates to HepG2. In words: Protective effect against hydrogen peroxide (H2O2, 0.9 mM)-induced oxidative stress in HepG2. To be noted: HepG2, H2O2 0.9mM, p<0.05.

Take `COc1cc(-c2[o+]c3cc(O)cc(O[C@@H]4O[C@H](CO)[C@@H](O)[C@H](O)[C@H]4O)c3cc2O[C@@H]2O[C@H](CO)[C@@H](O)[C@H](O)[C@H]2O[C@@H]2O[C@H](CO)[C@@H](O)[C@H](O)[C@H]2O)ccc1O` (single isomer, unassigned) [Peak 2, Peonidin-3-sophoroside-5-glucoside]: the “inhibition of LPS-induced NO production” value in test [1] is on record as “유의적으로 저해하였다”. In addition, testing at 1 µM in test [2] (1uM) gave an inhibition of 8%. For the same compound, in test [2] (10uM), the inhibition (commonly the change of the read-out against control, counted positive when it falls) at 10 µM worked out at 15%.

For the compound `COc1cc(-c2[o+]c3cc(O)cc(O[C@@H]4O[C@H](CO)[C@@H](O)[C@H](O)[C@H]4O)c3cc2O[C@@H]2O[C@H](COC(=O)/C=C/c3ccc(O)c(O)c3)[C@@H](O)[C@H](O)[C@H]2O[C@@H]2O[C@H](COC(=O)/C=C/c3ccc(O)c(O)c3)[C@@H](O)[C@H](O)[C@H]2O)ccc1O` (single isomer, unassigned) [Peak 12, Peonidin 3-(6", 6"'-dicaffeoyl sophoroside)-5-glucoside], the “cell protective effect against H2O2-induced oxidative stress” value in the test on HepG2 is “유의적인 세포 보호 효과를 보였다”. Turning to “Peonidin 3-p-hydroxybenzoyl sophoroside-5-glucoside [Peak 4]”, the “inhibition of LPS-induced NO production” value in test [1] is “유의적으로 저해하였다”.
